pIC50: −log10 of the molar value.
Test system: T1, Kir3.1 and Kir3.4 (IKACh)
T1 construct: gene KCNJ3; heterotetramer
Test: whole-cell patch clamp, HEK293, block of Ba-sensitive current
Type: cell-based
Conditions: -140 mV step from -20 mV holding; about 24 °C; bath pH 7.4, 50 mM KCl; pipette 0.1 mM GTP; Hill slope -0.48

pIC50: 5.92
Structure (SMILES): CCN(CC)CCCC(C)Nc1ccnc2cc(Cl)ccc12 (stereo not shown) [chloroquine]

From article PMC6890839, “The Antimalarial Chloroquine Reduces the Burden of Persistent Atrial Fibrillation” (Frontiers in Pharmacology, 2019)
